Results as given in paper PMC10828691 (Heliyon, 2024).
Read-outs that look alike come from different tables or passages of the source.

What was measured:
[1] = tested on: tissue nonspecific alkaline phosphatase (TNAP); settings: relative expression of control without drugs = 1.0
[2] = target: human placental alkaline phosphatase (hPAP) (Homo sapiens, UniProt P05187); assay: Alkaline phosphatase inhibition assay; assay type: biochemical
Chain of human placental alkaline phosphatase (hPAP) (P05187 23-535): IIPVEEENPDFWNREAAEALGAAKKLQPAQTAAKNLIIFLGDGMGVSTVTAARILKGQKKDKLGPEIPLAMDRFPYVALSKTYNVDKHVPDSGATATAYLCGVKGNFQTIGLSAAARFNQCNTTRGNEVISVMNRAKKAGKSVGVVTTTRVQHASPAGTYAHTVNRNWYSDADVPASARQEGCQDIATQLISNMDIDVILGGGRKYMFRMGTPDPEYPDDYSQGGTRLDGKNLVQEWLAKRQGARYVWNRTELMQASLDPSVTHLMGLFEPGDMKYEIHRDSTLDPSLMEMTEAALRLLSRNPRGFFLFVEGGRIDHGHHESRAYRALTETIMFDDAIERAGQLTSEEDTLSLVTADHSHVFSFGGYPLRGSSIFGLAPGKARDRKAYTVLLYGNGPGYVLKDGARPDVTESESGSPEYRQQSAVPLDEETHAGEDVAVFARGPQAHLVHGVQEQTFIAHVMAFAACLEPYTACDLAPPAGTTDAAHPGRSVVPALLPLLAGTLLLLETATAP

c1ccc([C@H]2CN3CCSC3=N2)cc1 [Levamisole]
TNAP Down-regulation ([1]; MCF-7, 10 μM): 0.26 fold

CC(C)(O)c1ccccc1CC[C@@H](SCC1(CC(=O)O)CC1)c1cccc(/C=C/c2ccc3ccc(Cl)cc3n2)c1 [Montelukast, (R,E)-2-(1-(((1-(3-(2-(7-chloroquinolin-2-yl)vinyl)phenyl)-3-(2-(2-hydroxypropan-2-yl)phenyl)propyl)thio)methyl)cyclopropyl) acetic acid]
TNAP Down-regulation ([1]; MCF-7, 5 μM): 0.27 fold
IC50 [2]: 17.5 ± 0.19 µM
